Values quoted from earlier work in patent US9072314B2, “Carotenoid-containing compositions and methods” (Mead Johnson Nutrition Company, priority 2007, dated 2015).

What was measured:
[1] = test system: H. pylori strains; conditions: strains in Japanese children, cited study

SMILES: CC1=C(/C=C/C(C)=C/C=C/C(C)=C/C=C/C=C(C)/C=C/C=C(C)/C=C/C2=C(C)C(=O)C(O)CC2(C)C)C(C)(C)CC(O)C1=O (stereo not shown) [Astaxanthin, astaxanthin]
- antioxidant capacity relative to Vitamin E (versus Vitamin E): 100-500 times
- antioxidant capacity relative to beta-carotene (versus beta-carotene): 10 times

SMILES: CC[C@H]1OC(=O)[C@H](C)[C@@H](O[C@H]2C[C@@](C)(OC)[C@@H](O)[C@H](C)O2)[C@H](C)[C@@H](O[C@@H]2O[C@H](C)C[C@H](N(C)C)[C@H]2O)[C@](C)(OC)C[C@@H](C)C(=O)[C@H](C)[C@@H](O)[C@]1(C)O [clarithromycin]
- H. pylori strains tested that were resistant [1]: 29%

SMILES: Cc1ncc([N+](=O)[O-])n1CCO [metronidazole]
- H. pylori strains tested that were resistant [1]: 24%
